Experimental data: article PMC11101253, “Pharmacokinetic Properties of Baitouweng Decoction in Bama Miniature Pigs: Implications for Clinical Application in Humans” (International Journal of Analytical Chemistry, 2024)
Like-named read-outs stand apart in the source and are kept apart here.

Legend:
[1] = in vivo
Description: The LC-MS analysis was conducted using a Waters Acquity UPLC I-Class system (Waters, USA) coupled with a Xevo TQ-XS mass spectrometer equipped with a heated electrospray ionization source. Chromatographic separation was carried out on an Acquity UPLC HSS T3 C18 column (2.1 mm × 50 mm, 1.8 μm) from Waters, USA, with a flow rate of 0.4 mL/min and a column oven temperature of 40°C. The mobile phase consisted of 0.1% aqueous formic acid (A) and acetonitrile (B). The gradient elution program was as follows: 0–2.0 min, 10%–60% B; 2.0–2.2 min, 60%–95% B; 2.2–3.2 min, 95% B; 3.2–3.5 min, 95%–10% B; and 3.5–5.5 min, 10% B. Mass spectrometric detection was conducted using both positive and negative ionization modes. The source parameters used were as follows: a spray voltage of 1.00 KV, capillary temperature set at 500°C, desolvation flow maintained at 1000 L/h, cone gas (nitrogen) flow at 150 L/h, and a cone voltage of 5 V. The collision energy and precursor to production transition m/z for each analyte are found in Table 1. The data acquisition was performed in multiple reaction monitoring (MRM) mode.
Subsequently, a volume of 400 μL of acetonitrile was added to a 100 μL plasma sample. The resulting mixture was subjected to vortexing for 1 minute and centrifuged at a force of 21367 g for 10 minutes at a temperature of 4°C. The resulting supernatant was subjected to evaporation, followed by reconstitution in a volume of 100 μL of 10% acetonitrile. This reconstituted solution was then centrifuged at a force of 21367 g, and subsequently, a volume of 4 μL of the resulting supernatant was used for UPLC-ESI-MS/MS analysis.
The study used six Bama miniature pigs (70 days old, weighing 20 ± 2 kg) obtained from the Experimental Animal Center, Shandong Lvdu Bio-Sciences and Technology Co., Ltd. (Binzhou, China). The pigs were housed under controlled conditions with a temperature of 25 ± 1°C, relative humidity of 65% ± 10%, and a 12/12 h light/dark cycle. The pigs were provided with standard pig feed and water ad libitum, in accordance with the guidelines outlined in the National Institutes of Health Guide for Care and Use of Laboratory Animals. […] Blood samples (0.5 mL each) were collected from the jugular vein of each pig into heparinized tubes at specific time intervals (0.5 h, 1.0 h, 4.0 h, 8.0 h, 12.0 h, 15.0 h, and 24.0 h) following intragastric administration. The blood sample was promptly subjected to centrifugation at a force of 3400 × g for 10 minutes. The resulting supernatant plasma was collected and preserved at a temperature of −80°C until subsequent preparation for LC-MS analysis. The concentration-time data of the analytes were evaluated using either noncompartmental or compartmental methods with the aid of the PKSolver 2.0 software package, and subsequently, pharmacokinetic parameters were computed. The outcomes are presented as the arithmetic mean accompanied by the standard deviation (SD).

[2] = set-up: method as in PMID 33217008; conditions: rats, oral 10 mg/kg obacunone; cited from earlier work
[3] = set-up: method as in PMID 34331552; conditions: rats, fruit of Tetradium ruticarpum and licorice extracts together; cited from earlier work
[4] = set-up: method as in PMID 10891884; conditions: beagle dogs, oral 300 mg of palmatine; cited from earlier work
[5] = set-up: method as in PMID 28871816; conditions: rats, cited from earlier work
[6] = Bama miniature, pig, in vivo, po
[7] = Bama miniature, pig, in vivo, po, C max
[8] = pig plasma, oral BTWD 1.0 mL/kg
[9] = pig plasma, single oral BTWD 1.0 mL/kg, n = 6, mean ± SD
[10] = Bama miniature, pig, plasma, po, 1 mL/kg
[11] = Bama miniature, pig, plasma, po, 1 mL/kg, C max, pig plasma, single oral BTWD 1.0 mL/kg, n = 6, mean ± SD
[12] = Bama miniature, pig, in vivo, po, 1 mL/kg

## COc1ccc2cc3[n+](cc2c1OC)CCc1cc2c(cc1-3)OCO2 [Berberine, berberine]
[1]; [6]
  AUC(0-inf): 209 ± 13.6 ng·h/mL
  AUC(0-t): 202 ± 12.7 ng·h/mL
  MRT: 11.07 ± 0.03 h
  Tmax: 12 h
  half-life: 3.14 ± 0.13 h
[1]; [7]
  Cmax: 28.4 ± 0.83 ng/mL
[1]; pig plasma, oral BTWD
  Cmax (in words): low Cmax
[1]; [8]
  concentration-time profile (shape): biphasic patterns
[1]; [9]
  CL/F: 14.82 ± 0.93 mL/h

## COc1cc2c(cc1O)-c1cc3ccc(OC)c(OC)c3c[n+]1CC2 [Columbamine, columbamine]
[1]; [10]
  AUC(0-inf): 31 ± 1.36 ng·h/mL
  AUC(0-t): 28.4 ± 1.31 ng·h/mL
  MRT: 12.5 ± 2.8 h
  Tmax: 12 h
  half-life: 6.74 ± 5.08 h
[1]; [11]
  Cmax: 3.8 ± 0.08 ng/mL
[1]; pig plasma, oral BTWD
  Cmax (in words): low Cmax
[1]; [8]
  concentration-time profile (shape): biphasic patterns
[1]; pig plasma, oral BTWD 1.0 mL/kg, upper bound stated in text
  plasma concentrations: below 10.0 ng/mL
[1]; [9]
  CL/F: 17.54 ± 0.76 mL/h

## c1c2c(cc3c1OCO3)-c1cc3ccc4c(c3c[n+]1CC2)OCO4 [Coptisine chloride, coptisine chloride]
[1]; [6]
  AUC(0-inf): 69.8 ± 1.42 ng·h/mL
  AUC(0-t): 59.88 ± 0.15 ng·h/mL
  MRT: 14.3 ± 0.31 h
  Tmax: 12 h
  half-life: 5.7 ± 0.33 h
  plasma concentrations: below 10.0 ng/mL
[1]; [7]
  Cmax: 5.9 ± 0.15 ng/mL
[1]; pig, in vivo, po
  CL/F: 6.56 ± 0.14 mL/h
  Cmax (in words): low Cmax
  concentration-time profile (shape): biphasic patterns

## O=c1ccc2cc(O)c(O)cc2o1 [Esculetin, esculetin]
[1]; [10]
  AUC(0-inf): 994 ± 27.8 ng·h/mL
  AUC(0-t): 980 ± 26.4 ng·h/mL
  MRT: 8.97 ± 0.08 h
  Tmax: 4 h
  half-life: 2.91 ± 0.08 h
[1]; [11]
  Cmax: 78.1 ± 1.68 ng/mL
[1]; [8]
  concentration-time profile (shape): biphasic patterns
[1]; [9]
  C max: 78.17 ± 1.68 ng/mL
  CL/F: 0.76 ± 0.02 mL/h

## O=c1ccc2cc(O[C@@H]3O[C@H](CO)[C@@H](O)[C@H](O)[C@H]3O)c(O)cc2o1 [Esculin, esculin]
[1]; [12]
  AUC(0-inf): 876 ± 124 ng·h/mL
  AUC(0-t): 531 ± 52.8 ng·h/mL
  Cmax: 66.4 ± 1.91 ng/mL
  MRT: 25.1 ± 1.91 h
  Tmax: 1 h
  half-life: 16.6 ± 1.48 h
[1]; [8]
  concentration-time profile (shape): biphasic patterns
[1]; [9]
  CL/F: 3.25 ± 0.43 mL/h

## COc1cc2ccc(=O)oc2c(O)c1O [Fraxetin, fraxetin]
[1]; [6]
  AUC(0-inf): 159 ± 9.33 ng·h/mL
  AUC(0-t): 159 ± 9.33 ng·h/mL
  MRT: 0.98 ± 0.01 h
  Tmax: 0.49 ± 0.01 h
  half-life: 0.33 h
[1]; [7]
  Cmax: 119 ± 6.14 ng/mL
[1]; pig plasma, oral BTWD
  absorption and elimination (in words): rapidly absorbed and eliminated from the plasma
[1]; [8]
  concentration-time profile (shape): biphasic patterns
[1]; [9]
  CL/F: 9.72 ± 0.56 mL/h

## COc1cc2ccc(=O)oc2c(O[C@@H]2O[C@H](CO)[C@@H](O)[C@H](O)[C@H]2O)c1O [Fraxin, fraxin]
[1]; [6]
  AUC(0-inf): 53.5 ± 2.78 ng·h/mL
  AUC(0-t): 53.2 ± 2.7 ng·h/mL
  MRT: 1.07 ± 0.04 h
  Tmax: 0.53 ± 0.02 h
  half-life: 0.36 ± 0.01 h
[1]; [7]
  Cmax: 36.8 ± 0.48 ng/mL
[1]; pig plasma, oral BTWD
  absorption and elimination (in words): rapidly absorbed and eliminated from the plasma
[1]; [9]
  CL/F: 36.38 ± 1.84 mL/h

## CC1(C)OC(=O)C=C[C@]2(C)[C@H]3CC[C@@]4(C)[C@H](c5ccoc5)OC(=O)[C@H]5O[C@]54[C@]3(C)C(=O)C[C@@H]12 [Obacunone, obacunone]
[2]
  MRT: 4.30 ± 0.16 h
  Tmax: 1 to 2 h
[3]
  MRT: 4.90 ± 2.60 h
  Tmax: 1.67 ± 0.29 h
[1]; [6]
  AUC0− inf: 1146.51 ± 7.38 ng·h/mL
  AUC(0-t): 111 ± 3.9 ng·h/mL
  MRT: 17.4 ± 3 h
  Tmax: 3.49 ± 0.07 h
  half-life: 0.88 ± 0.15 h
[1]; [7]
  Cmax: 7.39 ± 0.71 ng/mL
[1]; pig, in vivo, po
  CL/F: 0.37 ± 0.02 mL/h
  Cmax (in words): low Cmax

## COc1cc2c(cc1O)C[C@H]1c3cc(O)c(OC)cc3CC[N@@+]1(C)C2 [Phellodendrine, phellodendrine]
[1]; pig, in vivo, po
  AUC0− inf: 73.39 ± 2.80 ng·h/mL
  AUC0−t: 69.72 ± 2.62 ng·h/mL
  C max: 8.18 ± 0.21 ng/mL
  CL/F: 12.41 ± 0.47 mL/h
  Cmax (in words): low Cmax
  MRT: 11.39 ± 0.14 h
  T max: 12.00 h
  concentration-time profile (shape): biphasic patterns
  plasma concentrations: below 10.0 ng/mL
  t 1/2: 3.81 ± 0.10 h

## C=C(C)[C@@H]1CC[C@]2(C(=O)O[C@@H]3O[C@H](CO[C@@H]4O[C@H](CO)[C@@H](O[C@@H]5O[C@@H](C)[C@H](O)[C@@H](O)[C@H]5O)[C@H](O)[C@H]4O)[C@@H](O)[C@H](O)[C@H]3O)CC[C@]3(C)[C@H](CC[C@@H]4[C@@]5(C)CC[C@H](O[C@@H]6OC[C@H](O)[C@H](O)[C@H]6O[C@@H]6O[C@@H](C)[C@H](O)[C@@H](O)[C@H]6O)[C@@](C)(CO)[C@@H]5CC[C@]43C)[C@@H]12 [Pulchinenoside B4, pulchinenoside B4]
[1]; pig plasma, oral BTWD
  absorption and elimination (in words): rapidly absorbed and eliminated from the plasma
[1]; [8]
  concentration-time profile (shape): biphasic patterns
[1]; [9]
  AUC0− inf: 2580.65 ± 89.09 ng·h/mL
  AUC0−t: 2525.63 ± 87.16 ng·h/mL
  C max: 276.70 ± 10.54 ng/mL
  CL/F: 1.36 ± 0.05 mL/h
  MRT: 9.57 ± 0.14 h
  T max: 1.00 h
  t 1/2: 3.27 ± 0.17 h

## COc1cc2c(cc1OC)-c1cc3ccc(OC)c(OC)c3c[n+]1CC2 [palmatine]
[4]
  Cmax: 8 ng/mL
  Tmax: 5 h
[5]; oral Coptis root granules
  Cmax: 2.14 ± 0.68 ng/mL
  Tmax: 0.36 ± 0.074 h
[5]; oral Shuanghua Baihe tablets
  Cmax: 2.50 ± 0.43 ng/mL
  Tmax: 3.22 ± 0.81 h
[1]; [6]
  concentration at 12 h: 5.79 ng/mL
[1]; pig, in vivo, po
  plasma concentration (in words): below the threshold required for the analysis of PK behavior
